System: adult subjects with persistent or chronic immune thrombocytopenia
Assay: Clinical trial for immune thrombocytopenia (platelet counts, safety)
Format: in vivo, human
Conditions: for platelet count: 600 mg/d; for clinical efficacy in treating immune thrombocytopenia: adult persistent or chronic immune thrombocytopenia; for overall safety: tablets orally once daily on an empty stomach, 28-day cycles, 6 subjects; for percentage of subjects with at least one platelet count of ≥30×10^9/L and an increase of ≥2 times the baseline in platelet count / percentage of subjects with at least one platelet count of ≥50×10^9/L: within 12 weeks of treatment; for percentage of subjects with at least one platelet count of ≥30×10^9/L and an increase of ≥2 times the baseline in platelet count: in the absence of emergency treatment, evaluated patients
Experimental: Test drug: tablets of the compound of formula I, 50 mg/tablet or 200 mg/tablet; Administration regimen: orally taken once daily on an empty stomach, with 28 consecutive days of administration as one treatment cycle.
Neutrophil count (ANC)>1.5×10^9/L; hemoglobin (Hb)>90 g/L; • b. Total bilirubin (TBIL), alanine aminotransferase (ALT), and aspartate aminotransferase (AST)≤1.5 times the upper limit of normal (ULN); serum creatinine≤1.5×ULN, and creatinine clearance rate≥50 mL/min; • c. […] Prothrombin time (PT) is within the normal range±3 s, and activated partial thromboplastin time (APTT) is within the normal range±10 s; • e. The subject has no history of coagulation disorders other than immune thrombocytopenia. • 8) A female subject of childbearing age should agree to take contraceptive measures (such as intrauterine devices, contraceptives, or condoms) during the study and for 90 days after the study; serum pregnancy test results should be negative within 7 days before enrollment, and the subject must be a non-lactating one; a male subject should agree to take contraceptive measures during the study and for 6 months after the study.
Efficacy was evaluated according to the platelet counts, WHO bleeding scores, and emergency treatment received of the subjects. The effective rate of platelet count increase was used as a main measure of efficacy, and for evaluation criteria, reference was made to American Society of Hematology 2019 Guidelines for Immune Thrombocytopenia and Chinese Guidelines for Diagnosing and Treating Adult Primary Immune Thrombocytopenia (2020 Edition).
A total of 6 subjects were enrolled, with 3 in the 400 mg group (the dose for 2 of them was increased to 600 mg) and 3 in the 600 mg group.

[1] = 400 mg and 600 mg groups, listed as tablets of the compound of formula I
[2] = tablets orally once daily, 400 mg and 600 mg groups

Work on `Cn1c(=O)c(Nc2ccc(N3CCN(C4COC4)CC3)cn2)cc2c(F)c(-c3cc[nH]n3)ccc21` [compound of formula I] yielded a platelet count (Subject 1, previous third-line therapy, baseline mean 22, D 3) of 5.2e+10 L⁻¹, a platelet count (Subject 1, previous third-line therapy, baseline mean 22, D 11) of 2.2e+11 L⁻¹ and a platelet count (Subject 1, previous third-line therapy, baseline mean 22, D 18) of 7e+09 L⁻¹. The platelet count (Subject 1, previous third-line therapy, baseline mean 22, D 25) was 9e+09 L⁻¹, the platelet count (Subject 1, previous third-line therapy, baseline mean 22, W 5 D 1) was 8.9e+10 L⁻¹ and the platelet count (Subject 1, previous third-line therapy, baseline mean 22, W 6 D 1) was 8.4e+10 L⁻¹. The platelet count (Subject 1, previous third-line therapy, baseline mean 22, W 7 D 1) was 3.5e+10 L⁻¹, the platelet count (Subject 1, previous third-line therapy, baseline mean 22, W 8 D 1) was 1.31e+11 L⁻¹ and the platelet count (Subject 1, previous third-line therapy, baseline mean 22, W 9 D 1) was 2.24e+11 L⁻¹. The platelet count (Subject 1, previous third-line therapy, baseline mean 22, W 10 D 1) was 2.5e+10 L⁻¹, the platelet count (Subject 1, previous third-line therapy, baseline mean 22, W 12 D 1) was 1e+11 L⁻¹ and the platelet count (Subject 2, previous second-line therapy, baseline mean 6.5, D 3) was 1e+10 L⁻¹. The platelet count (Subject 2, previous second-line therapy, baseline mean 6.5, D 11) was 3.1e+10 L⁻¹, the platelet count (Subject 2, previous second-line therapy, baseline mean 6.5, D 18) was 3.5e+10 L⁻¹ and the platelet count (Subject 2, previous second-line therapy, baseline mean 6.5, D 25) was 2.1e+10 L⁻¹. For the same compound, the platelet count (Subject 3, previous first-line therapy, baseline mean 33.5, D 3) was 5.8e+10 L⁻¹, the platelet count (Subject 3, previous first-line therapy, baseline mean 33.5, D 11) was 8.3e+10 L⁻¹ and the platelet count (Subject 3, previous first-line therapy, baseline mean 33.5, D 18) was 3.4e+10 L⁻¹. For the same compound, the “clinical efficacy in treating immune thrombocytopenia” value was “can effectively improve the platelet count”, the “clinical efficacy in treating immune thrombocytopenia” value (listed as tablets of the compound of formula I) was “excellent clinical efficacy” and the overall safety (400 mg and 600 mg groups) was “good safety”. For the same compound, the overall safety [1] was “controllable”, the “dose-limiting toxicity (DLT) events” value [2] was “no dose-limiting toxicity (DLT) events” and the “treatment-related adverse events of grade 3 or higher” value [2] was “no treatment-related adverse events of grade 3 or higher”. For the same compound, the “percentage of subjects with at least one platelet count of ≥30×10^9/L and an increase of ≥2 times the baseline in platelet count” value (400 mg and 600 mg groups) was “relatively high”, the “percentage of subjects with at least one platelet count of ≥30×10^9/L and an increase of ≥2 times the baseline in platelet count” value [1] was 50% and the “percentage of subjects with at least one platelet count of ≥50×10^9/L” value (400 mg and 600 mg groups) was “relatively high”. For the same compound, the “percentage of subjects with at least one platelet count of ≥50×10^9/L” value [1] was 33.3%.
